Assays:
[1] = system: P. gingivalis; test: Trafficking of P. gingivalis to lysosomes in human coronary arterial endothelial cells (HCAEC); assay type: cell-based, Porphyromonas gingivalis; settings: HCAEC exposed to P. gingivalis; replicative vacuole in untreated cells
Excerpt: FIGS. 7A-7D. The inhibition of autophagy by AI-1 and AI-2 results in the trafficking of P. gingivalis to lysosomes. Human coronary arterial endothelial cells (HCAEC) were exposed to P. gingivalis (Pg) in the absence (FIG. 7A) and presence of 3-methyladenine (3MA) (FIG. 7B) and compounds AI-1 (FIG. 7C) and AI-2 (FIG. 7D).
We have previously shown that autophagy is required for P. gingivalis to thrive within host endothelial cells (Dorn, B. R., Dunn, W. A., Jr., and Progulske-Fox, A. “Porphyromonas gingivalis traffics to autophagosomes in human coronary artery endothelial cells” Infect Immun, 2001, Vol. 69, pp. 5698-5708). In fact, in the absence of autophagy, this bacterium fails to form a “replicative vacuole” and is instead transported to lysosomes where the bacterium is destroyed by digestive enzymes. We then tested the efficacy of AI-1 and AI-2 to promote the intracellular movements of this intracellular pathogen to the destructive lysosomes.

[2] = system: breast carcinoma MDA-MB468 cells; test: Survival of nutrient-starved cells, crystal violet staining; assay type: cell-based; settings: MDA-MB468, nutrient-deprived serum-free medium, 24 hours
Experimental: (§1) FIGS. 6A-B. Atg-4-targeted drugs decrease cell survival of nutrient deprived cancer cells. Control breast epithelial MCF10A, MDA-MB 468 breast carcinoma, Saos2 osteosarcoma, and HuH7 hepatoma were incubated under nutrient fed and starved conditions in the presence and absence of AI-1 and AI-2. The number of viable cells on the plate relative to fed after 24 hrs was quantified by crystal violet staining. Bars=mean±SEM, n=4-6 trials.
(§2) During the early stages of tumor growth prior to vascularization, cancer cells are exposed to conditions lacking nutrients and growth factors. These cells are able to survive these conditions by activating autophagy, thereby degrading endogenous macromolecules and recycling the nutrients. In order to simulate these conditions in vitro, we have incubated cells in the absence of amino acids and serum. Approximately 65-75% of the normal and cancer cell lines tested survived when exposed to nutrient-deprived serum-free medium for 24 hours.

[3] = system: normal breast epithelial cells (MCF10A); test: as above; assay type: cell-based; settings: nutrient-deprived serum-free medium, 24 hours
Experimental: as §1, §2

[4] = system: HuH7 hepatoma cells; test: as above; assay type: cell-based; settings: HuH7, nutrient-deprived serum-free medium, 24 hours
Experimental: as §1, §2

[5] = system: Saos-2 osteosarcoma cells; test: as above; assay type: cell-based; settings: Saos-2, nutrient-deprived serum-free medium, 24 hours
Experimental: as §1, §2

[6] = system: Saos-2 and MDA-MB468 cells; test: Starvation induced (autophagy-mediated) protein degradation, pulse-chase with 14C-leucine; assay type: cell-based; settings: starved cells, FIG. 4
Experimental: FIG. 4. Atg-4-targeted drugs suppress starvation induced (autophagy-mediated) protein degradation. Saos-2 and MDA-MB468 cells were incubated under nutrient fed and starved conditions in the presence and absence of 3-methyladenine (3MA), AI-1 and AI-2 and the rates of protein degradation measure by pulse-chase methodology with 14C-leucine. Bars=mean±SEM. n=4-6 trials. The Atg4 compounds were obtained from the National Cancer Institute (NCI) and then tested for their ability to suppress autophagy by observing the presence of autophagosomes in Saos-2 osteosarcoma and MDA-MB468 breast carcinoma cell lines stabling expressing Atg8 tagged with a green fluorescent protein (GFP-Atg8). Upon the onset of autophagy, Atg8 becomes lipidated being anchored to the autophagosome membrane whereby this protein then recruits additional membranes for expanding the size of the vacuoles and thus, regulating the degradative amplitude of autophagy. […] Compared to 70% of the starved cells containing autophagic vacuoles, less than 20% of those starved cells treated with AI-1 or AI-2 contained these vacuoles. These observations were consistent with the negative effects of these compounds on the lipidation of Atg8 (FIG. 3). Saos-2 cells expressing GFP-Atg8 were starved for amino acids for 2-6 h in the absence and presence of 3-methyladenine and the Atg4 compounds. […]

[7] = system: Atg8 (LC3); test: Lipidation of Atg8 (Atg8-PE) by Western blotting in starved Saos-2 cells; assay type: cell-based; settings: Saos-2 cells expressing GFP-Atg8 starved for amino acids for 2-6 h
Excerpt: (§3) FIG. 3. Atg-4-targeted compounds suppress the lipidation of Atg8 (LC3) in Saos-2 osteosarcoma cells. The lipidation of Atg8 (Atg8-PE) was examined by Western blotting in fed and starved (medium lacking amino acids and serum) cells and in starved cells treated with 3-methyladenine (3MA), AI-1 and AI-2. The Atg4 compounds were obtained from the National Cancer Institute (NCI) and then tested for their ability to suppress autophagy by observing the presence of autophagosomes in Saos-2 osteosarcoma and MDA-MB468 breast carcinoma cell lines stabling expressing Atg8 tagged with a green fluorescent protein (GFP-Atg8). Upon the onset of autophagy, Atg8 becomes lipidated being anchored to the autophagosome membrane whereby this protein then recruits additional membranes for expanding the size of the vacuoles and thus, regulating the degradative amplitude of autophagy. […] Compared to 70% of the starved cells containing autophagic vacuoles, less than 20% of those starved cells treated with AI-1 or AI-2 contained these vacuoles. These observations were consistent with the negative effects of these compounds on the lipidation of Atg8 (FIG. 3). Saos-2 cells expressing GFP-Atg8 were starved for amino acids for 2-6 h in the absence and presence of 3-methyladenine and the Atg4 compounds. […]

[8] = system: Saos-2 osteosarcoma and MDA-MB468 breast carcinoma cell lines; test: GFP-Atg8 labeled autophagic vacuoles in nutrient-starved cells stably expressing GFP-Atg8; assay type: cell-based; settings: starved Saos-2 cells, FIG. 2
Experimental: FIGS. 2A-2D. Atg-4-targeted drugs decreased the number of Atg8 (LC3)-labeled autophagic vacuoles. Saos-2 osteosarcoma and MDA-MB468 breast carcinoma cells stably expressing GFP-Atg8 were incubated under nutrient fed and starved (St) conditions in the presence and absence of AI-1 and AI-2. The presence GFP-Atg8 labeled autophagic vacuoles appear as dots (arrows) in starved Saos-2 cells (FIG. 2B). Atg8-labeled vacuoles are not observed in fed Saos-2 cells or starved cell treated with AI-1. Almost 70% of the starved cells contained autophagic vacuoles. However, the number of starved cells containing autophagic vacuoles was dramatically reduce upon treatment with AI-1 and AI-2 (FIG. 2D; n=number of cells counted). The Atg4 compounds were obtained from the National Cancer Institute (NCI) and then tested for their ability to suppress autophagy by observing the presence of autophagosomes in Saos-2 osteosarcoma and MDA-MB468 breast carcinoma cell lines stabling expressing Atg8 tagged with a green fluorescent protein (GFP-Atg8). Upon the onset of autophagy, Atg8 becomes lipidated being anchored to the autophagosome membrane whereby this protein then recruits additional membranes for expanding the size of the vacuoles and thus, regulating the degradative amplitude of autophagy. […]

[9] = system: MDA-MB468 cells; test: Size and distribution of autophagic vacuoles by electron microscopy; assay type: cell-based; settings: starved MDA-MB468 cells
Experimental: FIGS. 5A-5D. Atg-4-targeted drugs reduce the size of autophagic vacuoles. MDA-MB468 cells were incubated under nutrient fed (FIG. 5A) and starved (medium lacking amino acids and serum; FIG. 5B) conditions in the presence and absence of AI-1 (FIG. 5C) and AI-2 (FIG. 5D), Autophagic vacuoles (arrows) were visualized by electron microscopy. The “black” reaction product of CMPase, a lysosomal enzyme, can be seen within small lysosomes, many larger autophagic vacuoles (arrows) as well as the Golgi apparatus (Go).
as §3, with “The” for “FIG. 3. Atg-4-targeted compounds suppress the lipidation of Atg8 (LC3) in Saos-2 osteosarcoma cells. The lipidation of Atg8 (Atg8-PE) was examined by Western blotting in fed and starved (medium lacking amino acids and serum) cells and in starved cells treated with 3-methyladenine (3MA), AI-1 and AI-2. The”, “3).” for “3). Saos-2 cells expressing GFP-Atg8 were starved for amino acids for 2-6 h in the absence and presence of 3-methyladenine and the Atg4 compounds.”

Row | Structure (SMILES) | location and state of intracellular P. gingivalis [1] | survival of nutrient-starved cells [2] | survival of nutrient-starved cells [3] | survival of nutrient-starved cells [4] | survival of nutrient-starved cells [5] | degradation of endogenous proteins [6] | lipidation of Atg8 (Atg8-PE) [7] | Atg8-labeled vacuoles observed [8] | distribution of autophagic vacuoles [9]
1 | Cn1cnc(N)c2ncnc1-2 [3-methyladenine, reference compound] | partially degraded bacteria were found in CMPase-positive lysosomes |  |  |  |  |  |  |  | 
2 | S=C(Nc1ccccn1)c1ccccn1 [AI-1, N-2-pyridinyl-2-pyridinecarbothioamide] | bacteria in various degraded states were observed in CMPase-positive lysosomes | less than 40% | only moderately affected | moderate activity | moderate activity | reduction in the degradation of endogenous proteins | inhibiting the lipidation of Atg8 (LC3) | not observed | 
3 | CC(C)OC(=O)Nc1ccc2nc(-c3cscn3)[nH]c2c1 [AI-2, cambendazole] | bacteria in various degraded states were observed in CMPase-positive lysosomes |  | only moderately affected | 30 % of controls |  | reduction in the degradation of endogenous proteins | inhibiting the lipidation of Atg8 (LC3) |  | dramatic redistribution of the autophagic vacuoles to a centralized region of the cell

Source: US8545841B2, “Methods and compositions for the treatment of cancers and pathogenic infections” (University of Florida Research Foundation, Inc., priority 2008, dated 2013)
